Results reported in paper PMC10895371, “Phosphorylation of the alpha-I motif in SYMRK drives root nodule organogenesis” (Proceedings of the National Academy of Sciences of the …, 2024).

Key:
[1] = target: T1, SYMRK (intracellular domain; SYMRK-WT) (Lotus japonicus, UniProt Q8LKX1, S877D/S885D/S889D/S893D); experiment: nanoDSF thermal stability, […] nm fluorescence; format: binding; conditions: 1 mM ATP, 5 mM MgCl2, pH 7.5, 15 min on ice, 25 to 95 °C at 1 °C/min
T1 construct: intracellular kinase region with C-terminal alpha-I motif (intracellular domain modelled as 545-923); E. coli Rosetta 2, pAH10R7Sumo3C, tag cut with 3C, lambda-phosphatase dephosphorylated
T1 sequence (Q8LKX1 entry or part of it S877D/S885D/S889D/S893D): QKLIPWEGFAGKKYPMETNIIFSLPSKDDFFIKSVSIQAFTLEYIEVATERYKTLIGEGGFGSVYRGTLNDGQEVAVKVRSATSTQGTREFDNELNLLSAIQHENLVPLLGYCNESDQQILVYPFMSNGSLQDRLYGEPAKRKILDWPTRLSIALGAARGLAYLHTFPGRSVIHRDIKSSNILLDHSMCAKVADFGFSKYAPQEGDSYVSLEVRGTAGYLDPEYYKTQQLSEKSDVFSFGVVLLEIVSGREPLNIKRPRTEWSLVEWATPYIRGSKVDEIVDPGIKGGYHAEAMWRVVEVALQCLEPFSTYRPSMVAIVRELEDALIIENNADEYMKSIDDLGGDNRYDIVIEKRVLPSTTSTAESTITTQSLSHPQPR

[2] = target: T2, SYMRK (intracellular domain; SYMRK-WT) (Lotus japonicus, UniProt Q8LKX1, S877A/S885A/S889A/S893A); experiment: nanoDSF thermal stability, […] nm fluorescence; format: binding; conditions: 1 mM ATP, 5 mM MgCl2, pH 7.5, 15 min on ice, 25 to 95 °C at 1 °C/min
T2 construct: intracellular kinase region with C-terminal alpha-I motif (intracellular domain modelled as 545-923); E. coli Rosetta 2, pAH10R7Sumo3C, tag cut with 3C, lambda-phosphatase dephosphorylated
T2 sequence (Q8LKX1 entry or part of it S877A/S885A/S889A/S893A): as the sequence (Q8LKX1 entry or part of it S877D/S885D/S889D/S893D) above, with D333A, D341A, D345A, D349A counted along it

[3] = target: T3, SYMRK (intracellular domain; SYMRK-WT) (Lotus japonicus, UniProt Q8LKX1); experiment: nanoDSF thermal stability, […] nm fluorescence; format: binding; conditions: 1 mM ATP, 5 mM MgCl2, pH 7.5, 15 min on ice, 25 to 95 °C at 1 °C/min
T3 construct: intracellular kinase region with C-terminal alpha-I motif (intracellular domain modelled as 545-923); E. coli Rosetta 2, pAH10R7Sumo3C, tag cut with 3C, lambda-phosphatase dephosphorylated
T3 sequence (Q8LKX1 545-923 limits assumed): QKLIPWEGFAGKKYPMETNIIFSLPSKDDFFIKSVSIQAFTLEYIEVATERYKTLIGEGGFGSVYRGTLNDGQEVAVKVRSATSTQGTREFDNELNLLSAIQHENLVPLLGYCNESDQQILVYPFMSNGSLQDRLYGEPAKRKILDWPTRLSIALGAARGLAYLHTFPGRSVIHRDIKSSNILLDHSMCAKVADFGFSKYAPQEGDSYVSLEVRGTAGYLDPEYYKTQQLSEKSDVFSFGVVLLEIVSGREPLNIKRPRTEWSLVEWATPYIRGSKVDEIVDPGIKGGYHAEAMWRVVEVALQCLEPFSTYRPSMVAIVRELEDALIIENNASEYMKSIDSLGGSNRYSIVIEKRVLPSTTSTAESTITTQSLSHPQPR

[4] = target: T2, SYMRK (intracellular domain; SYMRK-WT); experiment: radioactive kinase assay, SDS-PAGE autoradiography; format: biochemical; conditions: labelled compound; 100 nCi, 5 mM MgCl2, MBP co-substrate and autophosphorylation, pH 7.5, room temperature, 1 h
[5] = target: T3, SYMRK (intracellular domain; SYMRK-WT); experiment: radioactive kinase assay, SDS-PAGE autoradiography; format: biochemical; conditions: labelled compound; 100 nCi, 5 mM MgCl2, MBP co-substrate and autophosphorylation, pH 7.5, room temperature, 1 h

SMILES	thermal stabilization [1]	thermal stabilization [2]	thermal stabilization [3]	radioactive kinase assay, SDS-PAGE autoradiography [4]	radioactive kinase assay, SDS-PAGE autoradiography [5]
Nc1ncnc2c1ncn2[C@@H]1O[C@H](COP(=O)(O)OP(=O)(O)OP(=O)(O)O)[C@@H](O)[C@H]1O [ATP]	we purified SYMRK-4D and found it to be monodisperse, thermostable, ATP binding, and catalytically active	all proteins except the catalytically inactive SYMRK-K622E control showed ATP-binding capacity	all proteins except the catalytically inactive SYMRK-K622E control showed ATP-binding capacity	–	–
Nc1ncnc2c1ncn2[C@@H]1O[C@H](COP(=O)(O)OP(=O)(O)OP(=O)(O)O)[C@@H](O)[C@H]1O [γ-32P-labeled ATP]	–	–	–	SYMRK-4A and SYMRK-WT are active kinases capable of both autophosphorylation and transphosphorylation	SYMRK-4A and SYMRK-WT are active kinases capable of both autophosphorylation and transphosphorylation
